Assay results: patent US20230398234A1, “NOVEL FUNGAL COMPOIND FORMULATIONS AND THEIR THERAPEUTIC METHODS OF USE” (priority 2020, published 2023)

Conditions: UPLC quantification of cordycepin; variable mass ratios; FIG. 2

## Nc1ncnc2c1ncn2[C@@H]1O[C@H](CO)C[C@H]1O [Cordycepin, 3′-deoxyadenosine]
  solubility of Cordycepin in Cordyceps extract, TPGS solution vs pure water: did not increase the solubility
